Measurements from ChEMBL document CHEMBL1201862, “PubChem BioAssay data set” (2004).
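Tested at 5 concentrations; 48 h exposure; 96-well plates; endpoints linearly interpolated, else capped at highest concentration. GI50 marks 50% less growth.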 Activity calls are given as the source filed them. Rule as the data show it: active = GI50 up to about 1.1 µM and inactive = higher.

Experiments:
Assay in all cases: growth of human tumour cells (NCI), 48 h
HCT-116 = test system: HCT-116
KM12 = test system: KM12
IGROV-1 = test system: IGROV-1
HOP-62 = test system: HOP-62
SN12C = test system: SN12C
BT-549 = test system: BT-549
SF-268 = test system: SF-268
A549 = test system: A549
RPMI-8226 = test system: RPMI-8226
TK-10 = test system: TK-10
SW-620 = test system: SW-620
HT-29 = test system: HT-29
CCRF-CEM = test system: CCRF-CEM
NCI-H460 = test system: NCI-H460
T47D = test system: T47D
MDA-MB-231 = test system: MDA-MB-231

Measured: GI50

CC(=O)Oc1c2oc3cc(O)c(O)cc3c2c(OC(C)=O)c2oc3cc(O)c(O)cc3c12 [POLYOZELLIN]
inactive: HCT-116 18.7 µM | KM12 20.3 µM | IGROV-1 18.2 µM | HOP-62 16.1 µM | SN12C 20.9 µM | BT-549 17.1 µM | SF-268 20.7 µM | A549 35 µM | RPMI-8226 > 10 µM | TK-10 18.9 µM | SW-620 23.2 µM | HT-29 26.4 µM | CCRF-CEM 2.57 µM | NCI-H460 18.6 µM

c1ncn(C23C4C5C6C4C2C6C53)n1 (centres undefined)
inactive: HCT-116 > 100 µM | KM12 > 100 µM | T47D > 100 µM | IGROV-1 > 100 µM | HOP-62 > 100 µM | SN12C > 100 µM | SF-268 > 100 µM | A549 > 100 µM | RPMI-8226 > 100 µM | TK-10 > 100 µM | SW-620 > 100 µM | HT-29 > 100 µM | CCRF-CEM > 100 µM | NCI-H460 > 100 µM | MDA-MB-231 > 100 µM

CCOC(=O)Nn1c(CC#N)nnc1Cc1ccccc1
inactive: HCT-116 > 100 µM | KM12 > 100 µM | T47D 84.9 µM | IGROV-1 > 100 µM | HOP-62 > 100 µM | SN12C > 100 µM | BT-549 > 100 µM | SF-268 > 100 µM | A549 > 100 µM | RPMI-8226 > 100 µM | TK-10 > 100 µM | SW-620 > 100 µM | HT-29 > 100 µM | NCI-H460 > 100 µM | MDA-MB-231 > 100 µM

O=S(=O)(c1ccccc1)n1c2ccc(Br)cc2c2nc3ccccc3nc21
inactive: HCT-116 > 100 µM | KM12 > 100 µM | T47D > 100 µM | IGROV-1 > 100 µM | HOP-62 > 100 µM | SN12C > 100 µM | SF-268 > 100 µM | A549 > 100 µM | RPMI-8226 > 100 µM | TK-10 > 100 µM | SW-620 > 100 µM | HT-29 > 100 µM | CCRF-CEM > 100 µM | NCI-H460 > 100 µM | MDA-MB-231 > 100 µM

CC(C)=CCC/C(C)=C/C=C/C(C)=C/C=C/C(C)=C/C=C/C=C(C)/C=C/C=C(C)/C=C/[C@H]1C(C(C)(C)O)CC[C@]1(C)O (some centres undefined)
inactive: HCT-116 15.7 µM | KM12 27.4 µM | T47D 22.9 µM | IGROV-1 20.2 µM | HOP-62 20 µM | SF-268 19.5 µM | RPMI-8226 17.7 µM | TK-10 37.3 µM | SW-620 25.8 µM | HT-29 27.5 µM | CCRF-CEM 15.1 µM | NCI-H460 29.8 µM | MDA-MB-231 25.4 µM

CC(C)/C(Cl)=N\OC(NC(=O)P(=O)(c1ccccc1)c1ccccc1)(C(F)(F)F)C(F)(F)F
inactive: HCT-116 9.16 µM | KM12 7.26 µM | T47D 10.9 µM | IGROV-1 10.8 µM | HOP-62 17.3 µM | SN12C 11.9 µM | SF-268 12.1 µM | A549 5.15 µM | RPMI-8226 10.3 µM | TK-10 11.7 µM | SW-620 21.7 µM | HT-29 16.1 µM | CCRF-CEM 5.01 µM | NCI-H460 15.2 µM | MDA-MB-231 16 µM

CC(=O)OCCn1cnc2c(NCC=C(C)C)ncnc21
inactive: HCT-116 > 100 µM | KM12 > 100 µM | T47D > 100 µM | IGROV-1 > 100 µM | HOP-62 > 100 µM | SN12C > 100 µM | SF-268 > 100 µM | A549 > 100 µM | RPMI-8226 > 100 µM | TK-10 > 100 µM | SW-620 > 100 µM | HT-29 > 100 µM | CCRF-CEM > 100 µM | NCI-H460 > 100 µM | MDA-MB-231 > 100 µM

CCOC(=O)C(NC(=O)OC(C)(C)C)C(=O)OCC
inactive: HCT-116 > 100 µM | KM12 > 100 µM | T47D > 100 µM | IGROV-1 > 100 µM | HOP-62 > 100 µM | SN12C > 100 µM | BT-549 > 100 µM | SF-268 > 100 µM | A549 > 100 µM | RPMI-8226 > 100 µM | TK-10 > 100 µM | SW-620 > 100 µM | HT-29 > 100 µM | CCRF-CEM > 100 µM | NCI-H460 > 100 µM

COc1ccc(C2c3cc4c(cc3OC(N3CCOCC3)C2C)OCO4)c(OC)c1OC (centres undefined)
inactive: HCT-116 10.3 µM | KM12 5.55 µM | T47D 20.6 µM | IGROV-1 15.1 µM | HOP-62 26.9 µM | SN12C 26.3 µM | SF-268 17.4 µM | A549 22.9 µM | RPMI-8226 13.2 µM | TK-10 15.5 µM | SW-620 11.1 µM | HT-29 14 µM | CCRF-CEM 13 µM | NCI-H460 20.5 µM

Cc1nc(Nc2ccc(Cl)c(Cl)c2)sc1C(=O)/C=C/c1ccc2c(c1)OCO2
inactive: HCT-116 20.6 µM | KM12 20.9 µM | T47D 42.5 µM | IGROV-1 38.6 µM | HOP-62 17.9 µM | BT-549 21.5 µM | SF-268 24.3 µM | A549 22.3 µM | RPMI-8226 17.1 µM | TK-10 24.5 µM | SW-620 40.5 µM | HT-29 36.8 µM | CCRF-CEM 31.8 µM | NCI-H460 34.5 µM

C/C(=N\n1c(Cc2ccccc2)n[nH]c1=O)c1ccc([N+](=O)[O-])cc1
inactive: HCT-116 > 100 µM | KM12 > 100 µM | T47D 94 µM | IGROV-1 > 100 µM | HOP-62 49.2 µM | SN12C > 100 µM | BT-549 > 100 µM | A549 > 100 µM | RPMI-8226 50.4 µM | TK-10 > 100 µM | SW-620 > 100 µM | HT-29 > 100 µM | NCI-H460 > 100 µM | MDA-MB-231 > 100 µM

N#CC1=C(N2CCCC2)NC(=O)CC1=O
inactive: HCT-116 > 100 µM | KM12 > 100 µM | T47D 74 µM | IGROV-1 > 100 µM | HOP-62 > 100 µM | SN12C > 100 µM | SF-268 > 100 µM | A549 > 100 µM | RPMI-8226 > 100 µM | TK-10 > 100 µM | SW-620 > 100 µM | HT-29 > 100 µM | CCRF-CEM > 100 µM | NCI-H460 > 100 µM | MDA-MB-231 > 100 µM

CC1(C)CC(=O)c2[nH]c3ccccc3c2CC(=O)NCCc2cn1cn2
inactive: HCT-116 > 100 µM | KM12 > 100 µM | T47D > 100 µM | IGROV-1 > 100 µM | SN12C > 100 µM | BT-549 > 100 µM | SF-268 > 100 µM | A549 > 100 µM | TK-10 > 100 µM | SW-620 > 100 µM | HT-29 > 100 µM | NCI-H460 > 100 µM | MDA-MB-231 88.1 µM

Cc1cn(CCCCC2=NCCCN2)c(=O)[nH]c1=O
inactive: HCT-116 > 23.3 µM | KM12 > 31.3 µM | IGROV-1 > 26.5 µM | HOP-62 > 46.6 µM | SN12C > 100 µM | SF-268 1.34 µM | A549 > 35.1 µM | RPMI-8226 > 100 µM | TK-10 9.18 µM | SW-620 > 28.3 µM | NCI-H460 > 52.5 µM | MDA-MB-231 > 29.4 µM
